From ChEMBL document CHEMBL1201862, “PubChem BioAssay data set” (2004)
Activity calls are given as the source filed them.

What was measured:
[1] = inhibitors of intracellular T. cruzi replication, confirmation, NIH3T3 host cells, beta-gal luminescence (AID 2044); type: functional, cell-based;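 also: intracellular parasites grown in NIH/3T3 mouse fibroblasts as host cells; luminescent beta-galactosidase reporter signal from transgenic T. cruzi replicating inside host cells; inhibitors lower the luminescence signal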
[2] = cytotoxicity toward NIH3T3 fibroblasts, dose response, counter-screen, cell-based, ATP luminescence, mouse fibroblasts (AID 2010); type: functional;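 also: cells exposed to compound for about 90 hours before reading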
[3] = insulin promoter down-regulators in MIN6 cells, imaging, high-content screening, mouse beta cells (AID 1628); type: functional
[4] = cytotoxicity in MIN6 insulinoma cells, dose response, cytotoxicity control, cell-based, mouse insulinoma (AID 2122); type: functional;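 also: confirmatory high-throughput counterscreen run to flag cytotoxic compounds; mouse MIN-6 beta cells carrying an insulin promoter eGFP reporter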
[5] = molecular target: T1, Sphingosine 1-phosphate receptor 4 (Homo sapiens, UniProt O95977); experiment: Fluorescence dose response cell-based high throughput screening assay for antagonists of the Sphingosine 1-Phosphate Receptor 4 (S1P4). [Related pubchem assays: 1524 (Confirmation in triplicates.), 1510 (Primary screen.)]; type: functional
T1 sequence (O95977 whole entry): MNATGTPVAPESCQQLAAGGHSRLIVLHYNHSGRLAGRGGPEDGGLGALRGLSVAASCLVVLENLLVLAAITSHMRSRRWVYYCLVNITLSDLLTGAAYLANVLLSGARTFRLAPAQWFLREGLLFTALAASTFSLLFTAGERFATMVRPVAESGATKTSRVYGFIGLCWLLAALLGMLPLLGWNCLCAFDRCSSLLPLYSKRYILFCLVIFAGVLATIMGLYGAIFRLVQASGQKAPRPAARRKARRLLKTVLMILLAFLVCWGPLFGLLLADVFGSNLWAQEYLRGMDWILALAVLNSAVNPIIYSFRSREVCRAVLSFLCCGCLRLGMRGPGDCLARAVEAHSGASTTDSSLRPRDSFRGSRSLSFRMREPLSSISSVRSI

[6] = molecular target: Sphingosine 1-phosphate receptor 1 (Homo sapiens, UniProt P21453); type: functional;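 also: Tango beta-arrestin reporter U2OS cells stimulated with S1P near its EC80; inhibitor potency meaning antagonism of receptor activation by the natural agonist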
[7] = Shn3 3'UTR reporter inhibitors, dose response, cell-based, Clone20 osteoblasts, firefly luciferase, cherry-picked (AID 624132); type: functional;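 also: firefly luciferase luminescence from reporter carrying the Shn3 3'UTR in osteoblasts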
[8] = HepG2 cell cytotoxicity, dose response, cytotoxicity control for Shn3 inhibitor project, CellTiter-Glo, cherry-picked (AID 624134); type: functional, cell-based
[9] = control 3'UTR Renilla luciferase suppression, dose response, counter-screen for Shn3 inhibitor project, cell-based, Clone20-Shn3RL, cherry-picked (AID 624133); type: functional
Paired box protein Pax-8 = Paired box protein Pax-8 (Homo sapiens, UniProt Q06710); experiment: inhibitors of PAX8-driven TPO luciferase reporter, dose response, RMG-I cells, cherry-pick (AID 687027); type: functional, cell-based;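 also: luciferase reporter driven by Pax8 target thyroperoxidase promoter measured by SteadyGlo luminescence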
[10] = A549 cell cytotoxicity, dose response, cytotoxicity control, plate reader, cherry-pick, antagonist series (AID 743412); type: functional, cell-based
[11] = HepG2 cell cytotoxicity, dose response, cytotoxicity control, plate reader, cherry-pick, antagonist series (AID 743416); type: functional, cell-based
[12] = LGR2 antagonists, dose response, cell-based, HEK293, CRE-luciferase reporter, cherry pick, set 2 (AID 743343); type: functional;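 also: transfected cells were stimulated with diluted bursicon conditioned medium after compound addition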
[13] = MC4R antagonists, dose response, counter-screen for LGR2 antagonist project, cell-based, plate reader, cherry pick (AID 743444); type: functional;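 also: transfected HEK 293 cells stimulated with alpha-MSH peptide; potency of inhibitors of the alpha-MSH evoked signal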
[14] = HEK293 cell cytotoxicity, dose response, cytotoxicity control, plate reader, cherry-picked samples (AID 743446); type: functional, cell-based
[15] = molecular target: T2, Ubiquitin carboxyl-terminal hydrolase BAP1 (Homo sapiens, UniProt Q92560); experiment: BAP1 deubiquitinase inhibitors, dose response, biochemical (AID 714); type: functional
T2 sequence (Q92560 whole entry): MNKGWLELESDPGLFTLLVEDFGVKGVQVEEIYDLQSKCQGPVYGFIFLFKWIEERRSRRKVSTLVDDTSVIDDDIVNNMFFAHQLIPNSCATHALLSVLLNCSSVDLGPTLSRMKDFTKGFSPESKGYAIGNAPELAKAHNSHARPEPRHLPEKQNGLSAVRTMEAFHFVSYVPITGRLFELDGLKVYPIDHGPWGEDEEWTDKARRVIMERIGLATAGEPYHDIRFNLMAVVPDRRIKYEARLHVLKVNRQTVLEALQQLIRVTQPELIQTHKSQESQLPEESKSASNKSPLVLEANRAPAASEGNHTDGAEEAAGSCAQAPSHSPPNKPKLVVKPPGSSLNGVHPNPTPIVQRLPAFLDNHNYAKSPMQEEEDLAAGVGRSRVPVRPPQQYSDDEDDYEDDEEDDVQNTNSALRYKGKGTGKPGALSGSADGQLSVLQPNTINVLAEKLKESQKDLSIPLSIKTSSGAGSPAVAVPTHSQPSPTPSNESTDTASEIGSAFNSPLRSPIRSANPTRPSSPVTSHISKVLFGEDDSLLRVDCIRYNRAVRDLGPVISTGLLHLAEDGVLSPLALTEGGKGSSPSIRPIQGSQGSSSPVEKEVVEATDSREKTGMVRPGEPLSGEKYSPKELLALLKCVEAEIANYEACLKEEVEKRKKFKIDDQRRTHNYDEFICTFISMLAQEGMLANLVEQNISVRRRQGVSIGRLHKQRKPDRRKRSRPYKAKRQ

[16] = molecular target: T3, Epstein-Barr nuclear antigen 1 (Epstein-Barr virus (strain B95-8) (HHV-4) (Human herpesvirus 4), UniProt P03211); experiment: EBNA-1 inhibitors, dose response, biochemical, fluorescence polarization, 1536-well (AID 2381); parameters: species or system human gammaherpesvirus 4;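 also: fluorescence polarization of a Cy5 DNA probe bound by EBNA-1 protein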
T3 sequence (P03211 whole entry): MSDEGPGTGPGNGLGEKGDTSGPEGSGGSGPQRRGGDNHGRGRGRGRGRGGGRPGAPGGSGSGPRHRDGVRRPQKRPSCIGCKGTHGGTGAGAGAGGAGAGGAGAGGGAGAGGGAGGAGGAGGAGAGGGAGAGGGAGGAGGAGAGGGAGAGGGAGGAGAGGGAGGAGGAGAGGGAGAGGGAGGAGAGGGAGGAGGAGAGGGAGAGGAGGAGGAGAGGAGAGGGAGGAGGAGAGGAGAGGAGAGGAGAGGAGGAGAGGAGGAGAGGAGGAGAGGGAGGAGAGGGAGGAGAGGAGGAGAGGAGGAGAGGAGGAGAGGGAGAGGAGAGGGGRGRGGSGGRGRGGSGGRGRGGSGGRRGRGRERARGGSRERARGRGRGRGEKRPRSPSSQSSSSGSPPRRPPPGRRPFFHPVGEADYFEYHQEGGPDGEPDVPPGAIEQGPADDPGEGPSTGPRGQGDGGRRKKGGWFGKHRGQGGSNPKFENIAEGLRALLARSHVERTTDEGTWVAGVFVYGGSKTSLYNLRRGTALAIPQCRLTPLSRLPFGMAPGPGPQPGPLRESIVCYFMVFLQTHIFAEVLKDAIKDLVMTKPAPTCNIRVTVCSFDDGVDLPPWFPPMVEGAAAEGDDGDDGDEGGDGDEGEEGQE

[17] = molecular target: T4, Lytic switch protein BZLF1 (Epstein-Barr virus (strain B95-8) (HHV-4) (Human herpesvirus 4), UniProt P03206); experiment: EBV ZTA inhibitors, dose response, counter-screen for EBNA-1 inhibitor project, biochemical, fluorescence polarization, Epstein-Barr virus, 1536-well (AID 2377); parameters: species or system human gammaherpesvirus 4;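 also: fluorescence polarization of Cy5-labelled ZRE DNA probe bound by purified Zta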
T4 sequence (P03206 whole entry): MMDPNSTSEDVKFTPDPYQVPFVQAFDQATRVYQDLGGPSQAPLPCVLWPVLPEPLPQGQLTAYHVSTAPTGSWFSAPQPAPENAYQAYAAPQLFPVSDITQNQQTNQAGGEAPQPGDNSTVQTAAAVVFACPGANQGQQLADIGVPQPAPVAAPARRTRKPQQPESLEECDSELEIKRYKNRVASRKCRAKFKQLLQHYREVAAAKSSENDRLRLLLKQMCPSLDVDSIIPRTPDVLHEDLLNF

[18] = molecular target: Peroxisome proliferator-activated receptor gamma/Nuclear receptor corepressor 2 (Homo sapiens, UniProt P37231+Q9Y618); experiment: Counterscreen for NR2E3 inverse agonists: TR-FRET-based biochemical high throughput dose response assay to identify inverse agonists of the interaction between peroxisome proliferator-activated receptor gamma (PPARg) and nuclear receptor co-repressor 2 (NCOR2).; type: functional
[19] = molecular target: Photoreceptor-specific nuclear receptor (Homo sapiens, UniProt Q9Y5X4); experiment: NR2E3 inverse agonists, dose response, biochemical, TR-FRET (AID 463256); type: functional
Estrogen receptor beta = Estrogen receptor beta (Homo sapiens, UniProt Q92731);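 also: recombinant ER-beta bound to coactivator SRC1 peptide in presence of estradiol agonist; inhibitors block coactivator peptide binding and lower the FRET signal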
[20] = A cytotoxicity screen of small molecule inhibitors of the PhoP region in Salmonella typhi identified in the primary screen. [Related pubchem assays: 1850, 1864, 1985 ]; type: functional
Cytochrome P450 2C9 = Cytochrome P450 2C9 (Homo sapiens, UniProt P11712)
[21] = growth suppression of PTEN-null colon cells, dose response, cell-based, HCT116 PTEN knockout (AID 1047); type: functional;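 also: HCT116 colon tumor cells with PTEN knocked out; cells exposed to compound for 60 hours before readout; potency for loss of cell viability measured by luminescence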
[22] = growth suppression of beta-catenin-knockout colon cells, dose response, cell-based, HCT116, human colon tumor (AID 1045); type: functional;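 also: HCT116 colon tumor cells with beta catenin knocked out; cells exposed to compound for 60 hours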
[23] = molecular target: Induced myeloid leukemia cell differentiation protein Mcl-1 (Homo sapiens, UniProt Q07820); type: functional
[24] = molecular target: Luciferin 4-monooxygenase (Photinus pyralis, UniProt P08659); experiment: firefly luciferase enzyme inhibitors, dose response, biochemical, luminescence (AID 1891)
[25] = Luminescence Cell-Based Dose Confirmation HTS to Identify Inhibitors of Platelet Dense Granule Release. [Related pubchem assays: 1663 (Primary HTS), 1678 (Summary of Project)]; type: functional

Photoreceptor-specific nuclear receptor, sequence (Q9Y5X4 whole entry): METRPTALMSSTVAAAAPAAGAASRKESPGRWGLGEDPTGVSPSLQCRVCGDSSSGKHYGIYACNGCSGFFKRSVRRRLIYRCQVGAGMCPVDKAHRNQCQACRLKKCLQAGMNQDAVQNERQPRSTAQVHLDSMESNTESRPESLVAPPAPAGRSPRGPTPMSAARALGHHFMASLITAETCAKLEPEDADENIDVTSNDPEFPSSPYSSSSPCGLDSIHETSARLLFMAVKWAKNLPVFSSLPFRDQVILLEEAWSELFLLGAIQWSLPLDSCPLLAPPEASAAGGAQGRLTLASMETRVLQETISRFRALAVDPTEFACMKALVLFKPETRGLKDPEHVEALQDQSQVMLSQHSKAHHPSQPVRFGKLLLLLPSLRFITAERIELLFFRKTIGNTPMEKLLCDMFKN
Peroxisome proliferator-activated receptor gamma/Nuclear receptor corepressor 2, sequence (P37231 whole entry): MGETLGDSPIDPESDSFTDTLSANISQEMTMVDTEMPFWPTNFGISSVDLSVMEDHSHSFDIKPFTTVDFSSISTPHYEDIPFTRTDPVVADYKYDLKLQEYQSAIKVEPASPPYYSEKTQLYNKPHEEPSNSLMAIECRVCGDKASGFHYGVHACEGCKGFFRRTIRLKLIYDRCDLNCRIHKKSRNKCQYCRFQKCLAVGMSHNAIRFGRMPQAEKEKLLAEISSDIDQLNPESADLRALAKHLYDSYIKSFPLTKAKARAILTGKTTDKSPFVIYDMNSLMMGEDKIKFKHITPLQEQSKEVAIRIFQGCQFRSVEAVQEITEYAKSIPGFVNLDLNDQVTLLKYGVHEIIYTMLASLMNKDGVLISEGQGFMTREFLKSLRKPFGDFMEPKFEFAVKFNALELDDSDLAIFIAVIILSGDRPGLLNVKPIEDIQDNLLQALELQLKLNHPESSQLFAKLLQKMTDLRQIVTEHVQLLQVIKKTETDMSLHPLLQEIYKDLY
Peroxisome proliferator-activated receptor gamma/Nuclear receptor corepressor 2, sequence (Q9Y618 whole entry): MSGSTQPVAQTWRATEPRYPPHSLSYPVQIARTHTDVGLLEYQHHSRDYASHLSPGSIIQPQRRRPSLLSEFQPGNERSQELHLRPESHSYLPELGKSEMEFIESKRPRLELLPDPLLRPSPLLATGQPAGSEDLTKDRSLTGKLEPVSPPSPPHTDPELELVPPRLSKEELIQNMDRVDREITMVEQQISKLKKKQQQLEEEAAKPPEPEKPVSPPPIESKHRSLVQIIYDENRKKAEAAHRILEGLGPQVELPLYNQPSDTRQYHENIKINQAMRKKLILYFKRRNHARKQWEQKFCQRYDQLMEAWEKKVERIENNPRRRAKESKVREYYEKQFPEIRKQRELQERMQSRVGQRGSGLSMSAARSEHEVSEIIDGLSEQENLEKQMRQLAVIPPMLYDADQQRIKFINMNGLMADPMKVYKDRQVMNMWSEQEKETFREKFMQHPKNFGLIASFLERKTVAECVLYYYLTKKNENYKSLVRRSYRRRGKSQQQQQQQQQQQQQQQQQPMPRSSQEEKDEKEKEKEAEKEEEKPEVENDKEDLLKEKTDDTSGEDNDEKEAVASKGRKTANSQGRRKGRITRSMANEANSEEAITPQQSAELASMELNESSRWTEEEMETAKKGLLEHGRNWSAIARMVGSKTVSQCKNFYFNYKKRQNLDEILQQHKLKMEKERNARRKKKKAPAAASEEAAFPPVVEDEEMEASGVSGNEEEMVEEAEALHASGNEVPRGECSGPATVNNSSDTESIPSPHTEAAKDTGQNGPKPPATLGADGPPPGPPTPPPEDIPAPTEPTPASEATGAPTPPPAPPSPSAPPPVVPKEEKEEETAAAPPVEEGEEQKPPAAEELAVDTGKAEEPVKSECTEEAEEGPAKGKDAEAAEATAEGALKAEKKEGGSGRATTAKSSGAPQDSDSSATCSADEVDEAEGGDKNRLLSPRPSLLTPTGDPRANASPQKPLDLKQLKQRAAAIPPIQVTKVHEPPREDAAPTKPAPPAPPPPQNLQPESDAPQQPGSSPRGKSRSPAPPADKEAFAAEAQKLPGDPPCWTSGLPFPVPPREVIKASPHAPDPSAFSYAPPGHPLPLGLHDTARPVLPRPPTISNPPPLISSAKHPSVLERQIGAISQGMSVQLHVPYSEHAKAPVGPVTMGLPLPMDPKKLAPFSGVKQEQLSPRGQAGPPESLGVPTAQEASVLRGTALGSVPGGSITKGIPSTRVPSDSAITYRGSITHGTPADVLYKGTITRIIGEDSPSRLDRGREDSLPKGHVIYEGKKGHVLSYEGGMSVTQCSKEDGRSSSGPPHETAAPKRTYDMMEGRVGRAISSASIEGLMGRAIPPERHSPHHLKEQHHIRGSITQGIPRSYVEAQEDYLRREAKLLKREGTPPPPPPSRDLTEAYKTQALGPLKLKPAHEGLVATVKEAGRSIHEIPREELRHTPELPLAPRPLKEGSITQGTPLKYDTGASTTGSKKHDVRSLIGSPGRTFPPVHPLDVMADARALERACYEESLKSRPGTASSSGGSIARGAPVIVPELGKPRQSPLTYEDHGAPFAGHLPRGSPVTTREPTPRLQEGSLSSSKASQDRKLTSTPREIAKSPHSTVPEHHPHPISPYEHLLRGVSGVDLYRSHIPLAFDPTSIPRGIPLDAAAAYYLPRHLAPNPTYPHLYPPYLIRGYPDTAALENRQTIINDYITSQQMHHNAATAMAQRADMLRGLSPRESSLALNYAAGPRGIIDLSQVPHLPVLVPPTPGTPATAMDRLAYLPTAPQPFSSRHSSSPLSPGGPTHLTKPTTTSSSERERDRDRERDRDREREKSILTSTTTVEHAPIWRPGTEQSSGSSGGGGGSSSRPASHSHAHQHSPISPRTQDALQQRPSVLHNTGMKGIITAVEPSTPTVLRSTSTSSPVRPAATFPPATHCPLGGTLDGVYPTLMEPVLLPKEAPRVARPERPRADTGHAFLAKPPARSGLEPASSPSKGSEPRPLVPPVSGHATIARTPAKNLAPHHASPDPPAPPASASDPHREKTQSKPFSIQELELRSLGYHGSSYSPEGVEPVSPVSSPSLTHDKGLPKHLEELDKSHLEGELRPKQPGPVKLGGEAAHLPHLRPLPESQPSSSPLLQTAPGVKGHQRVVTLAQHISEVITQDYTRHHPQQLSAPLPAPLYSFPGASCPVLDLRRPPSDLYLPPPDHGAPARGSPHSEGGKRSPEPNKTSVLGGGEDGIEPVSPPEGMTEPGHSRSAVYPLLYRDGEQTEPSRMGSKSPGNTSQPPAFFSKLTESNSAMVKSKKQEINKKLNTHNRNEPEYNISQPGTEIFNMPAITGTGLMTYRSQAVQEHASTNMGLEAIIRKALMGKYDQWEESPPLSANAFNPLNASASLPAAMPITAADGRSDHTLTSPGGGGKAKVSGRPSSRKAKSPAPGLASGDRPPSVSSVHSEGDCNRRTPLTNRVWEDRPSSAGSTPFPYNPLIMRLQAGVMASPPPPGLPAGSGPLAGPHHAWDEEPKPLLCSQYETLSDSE
Induced myeloid leukemia cell differentiation protein Mcl-1, sequence (Q07820 whole entry): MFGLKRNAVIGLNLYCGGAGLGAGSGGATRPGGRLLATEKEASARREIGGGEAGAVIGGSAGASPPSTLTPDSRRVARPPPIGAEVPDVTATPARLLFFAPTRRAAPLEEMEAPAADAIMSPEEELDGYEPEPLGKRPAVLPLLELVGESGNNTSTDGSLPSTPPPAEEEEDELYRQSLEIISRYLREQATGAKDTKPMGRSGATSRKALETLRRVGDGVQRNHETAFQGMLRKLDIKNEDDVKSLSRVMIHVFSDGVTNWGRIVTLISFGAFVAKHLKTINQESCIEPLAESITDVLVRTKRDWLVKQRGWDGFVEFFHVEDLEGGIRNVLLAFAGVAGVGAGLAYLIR
Estrogen receptor beta, sequence (Q92731 whole entry): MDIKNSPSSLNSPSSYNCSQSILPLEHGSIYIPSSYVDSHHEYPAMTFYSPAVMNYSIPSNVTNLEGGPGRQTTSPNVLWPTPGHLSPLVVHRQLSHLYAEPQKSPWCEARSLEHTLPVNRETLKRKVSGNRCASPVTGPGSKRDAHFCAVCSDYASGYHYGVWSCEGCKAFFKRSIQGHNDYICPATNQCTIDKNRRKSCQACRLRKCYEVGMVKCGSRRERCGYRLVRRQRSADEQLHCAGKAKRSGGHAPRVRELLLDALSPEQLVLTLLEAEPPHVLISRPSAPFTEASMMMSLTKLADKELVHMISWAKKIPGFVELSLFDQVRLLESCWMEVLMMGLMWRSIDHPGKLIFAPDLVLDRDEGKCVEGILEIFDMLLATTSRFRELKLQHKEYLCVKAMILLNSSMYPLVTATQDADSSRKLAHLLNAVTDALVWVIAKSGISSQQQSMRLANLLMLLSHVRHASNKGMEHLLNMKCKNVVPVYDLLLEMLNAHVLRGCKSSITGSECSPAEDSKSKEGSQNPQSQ
Luciferin 4-monooxygenase, sequence (P08659 whole entry): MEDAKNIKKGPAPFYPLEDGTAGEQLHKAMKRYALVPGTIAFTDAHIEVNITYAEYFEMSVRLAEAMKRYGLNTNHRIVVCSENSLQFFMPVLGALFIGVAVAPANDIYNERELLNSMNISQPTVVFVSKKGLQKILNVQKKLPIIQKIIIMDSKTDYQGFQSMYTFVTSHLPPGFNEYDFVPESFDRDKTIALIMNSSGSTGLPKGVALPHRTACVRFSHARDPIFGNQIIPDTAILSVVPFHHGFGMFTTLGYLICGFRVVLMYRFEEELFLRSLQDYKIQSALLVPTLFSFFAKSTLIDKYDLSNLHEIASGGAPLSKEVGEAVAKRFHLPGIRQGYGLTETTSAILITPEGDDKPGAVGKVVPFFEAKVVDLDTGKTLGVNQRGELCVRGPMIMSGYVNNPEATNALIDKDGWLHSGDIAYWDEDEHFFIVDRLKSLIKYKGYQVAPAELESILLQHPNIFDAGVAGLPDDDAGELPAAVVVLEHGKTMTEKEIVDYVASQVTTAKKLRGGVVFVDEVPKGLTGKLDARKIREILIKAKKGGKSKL

Compound: CC(=O)N(Cc1cccnc1)c1cccc(-c2nc3ccccc3s2)c1
- EC50 [1]: < 0.1 µM (active)
- EC50 [2]: > 60 µM (not active)
- EC50 (cells): 0.078 µM (active)

Compound: COc1ccc(-n2ncc(Cl)c(Cl)c2=O)cc1
- IC50 [3]: 1.56 µM (active)
- IC50 [4]: 1.11 µM (active)
- EC50 [1]: 1.59 µM (active)
- EC50 [2]: 2.03 µM (active)
- IC50 [5]: 2.09 µM (active)
- IC50 [6]: 21.6 µM (not active)
- AC50 [7]: 3.36 µM (active)
- AC50 [8]: 32.9 µM (active)
- AC50 [9]: 8.07 µM (active)
- AC50 (Paired box protein Pax-8): 5.62 µM (active)
- AC50 [10]: 10.8 µM (active)
- AC50 [11]: 8.23 µM (active)
- AC50 [12]: 20.2 µM (active)
- AC50 [13]: 26.5 µM (active)
- AC50 [14]: 7.88 µM (active)

Compound: COc1ccc(CNS(=O)(=O)c2ccc(S(=O)(=O)N3CCCCC3)cc2)cc1
- IC50 [15]: > 50 µM (not active)

Compound: CCCCN(CC)CCCNC(=O)C1CCN(c2ncnc3c2sc2cccc(F)c23)CC1
- EC50 [1]: < 0.1 µM (active)
- EC50 [2]: > 30 µM (not active)
- EC50 (cells): 0.294 µM (active)

Compound: COCCOC(=O)c1c(NC(=O)COC(=O)Cc2cccc(OC)c2)sc(C(N)=O)c1C
- IC50 [16]: > 5.47 µM (active)
- IC50 [17]: > 111 µM (not active)

Compound: COc1ccc(N2CC(=O)C(c3nc4ccccc4s3)=C2N)cc1
- IC50 [16]: 11.2 µM (not active)
- IC50 [17]: > 111 µM (not active)

Compound: COc1ccc(C(=O)Nc2ccc(NC(=O)c3cccs3)cn2)cc1
- IC50 [18]: 7.65 µM (active)
- IC50 [19]: 7.18 µM (active)

Compound: O=C(Nc1nnc(C2CCCO2)s1)c1ccc(Br)cc1 (stereo unspecified)
- IC50 (Estrogen receptor beta): > 50 µM (not active)

Compound: Cc1ccc(CCNS(=O)(=O)c2c[nH]cn2)cc1
- IC50 (Estrogen receptor beta): > 50 µM (not active)

Compound: COc1cccc(/C=N/NC(=O)CO/N=C(\C)c2cccs2)c1OC
- EC50 [20]: > 50 µM (active)
- AC50 (Cytochrome P450 2C9): 39.8 µM (inconclusive)

Compound: O=C(CSc1ccc(-c2cccs2)nn1)N1CCCCC1
- IC50 [18]: 8.03 µM (active)
- IC50 [19]: 2.64 µM (active)

Compound: O=C(Nc1ccc2ccccc2c1)Nc1ccc2snnc2c1
- IC50 [16]: 10.1 µM (not active)
- EC50 [1]: 1.94 µM (active)
- EC50 [21]: 14.9 µM (active)
- IC50 [17]: > 111 µM (not active)
- EC50 [2]: > 60 µM (not active)
- EC50 [22]: 15.9 µM (active)

Compound: CCCO/C(O)=C1\C(C)=NC2=C(C(=O)CCC2)C1c1cccc(OC)c1OC (stereo unspecified)
- IC50 [15]: 33.9 µM (not active)

Compound: COc1ccccc1NC(=O)C(=O)N/N=C/c1ccc([N+](=O)[O-])s1
- EC50 [1]: 0.858 µM (active)
- EC50 [2]: > 60 µM (not active)
- IC50 [23]: 2.56 µM (active)

Compound: CCCCNC(=O)c1cnc2ccc(S(=O)(=O)Nc3ccc(OCC)cc3)cc2c1O
- IC50 [15]: > 50 µM (not active)

Compound: Cc1ccsc1C(=O)C1CCCN(Cc2cnc(N3CCCC3)s2)C1 (stereo unspecified)
- EC50 [1]: < 0.1 µM (active)
- EC50 [2]: > 60 µM (not active)
- EC50 (cells): 0.137 µM (active)

Compound: CCN1C(=O)N/C(=C/c2cc(C)n(Cc3ccccc3)c2C)C1=O
- EC50 [20]: > 50 µM (active)

Compound: O=C(CSC1=NCCS1)Nc1nc2c(s1)CCCC2
- EC50 [20]: > 50 µM (active)

Compound: C(=C\c1ccco1)/c1ccc2ccccc2n1
- EC50 [24]: 4.25 µM (active)
- EC50 [25]: 15.2 µM (active)
- IC50 [23]: 9.47 µM (active)

Compound: COc1ccc(-c2nn3c(-c4ccc(F)cc4)nnc3s2)cc1
- IC50 [18]: > 39.8 µM (not active)
- IC50 [19]: > 39.8 µM (not active)

Compound: CCN(c1ccc(NC(=O)COC(=O)c2ccc(C)c(S(=O)(=O)N3CCOCC3)c2)cc1)C(C)C
- IC50 [23]: 1.67 µM (not active)
